In ChEMBL document CHEMBL1201862, “PubChem BioAssay data set” (2004):
Active and inactive are the calls of the source.

Experiments:
[1] = biological target: T1, Heat shock factor protein 1 (Mus musculus, UniProt P38532); assay: inhibition of MG132-induced HSE-luciferase signal, confirmation, cell-based, NIH3T3, luminescence, dose retest (AID 2382); type: functional;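 also: NIH3T3 fibroblasts with HSF1-driven luciferase reporter stressed by proteasome inhibitor MG132; luminescence from HSF1-driven luciferase expression after 8 hours of MG132 stress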
T1 sequence (P38532 whole entry): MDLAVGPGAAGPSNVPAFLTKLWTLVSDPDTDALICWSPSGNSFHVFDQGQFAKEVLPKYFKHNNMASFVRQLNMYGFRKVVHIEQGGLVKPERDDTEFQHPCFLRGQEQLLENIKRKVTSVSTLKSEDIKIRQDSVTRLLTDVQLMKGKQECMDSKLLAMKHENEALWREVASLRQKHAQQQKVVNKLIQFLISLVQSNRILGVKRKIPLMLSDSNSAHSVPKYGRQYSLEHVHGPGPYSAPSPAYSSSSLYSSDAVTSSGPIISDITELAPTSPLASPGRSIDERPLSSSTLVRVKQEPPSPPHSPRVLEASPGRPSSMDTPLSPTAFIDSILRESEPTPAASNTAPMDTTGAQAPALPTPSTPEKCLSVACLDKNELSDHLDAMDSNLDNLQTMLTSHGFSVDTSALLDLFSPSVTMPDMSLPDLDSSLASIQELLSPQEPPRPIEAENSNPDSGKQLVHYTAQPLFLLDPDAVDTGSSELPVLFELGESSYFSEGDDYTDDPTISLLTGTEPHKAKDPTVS

Cytochrome P450 2C19 = Cytochrome P450 2C19 (Homo sapiens, UniProt P33261); assay: Cytochrome panel assay with activity outcomes. Panel member name: p450-cyp2c19 Compounds with AC50 equal or less than 10 uM are considered active; type: functional
Sequence of Cytochrome P450 2C19 (P33261 whole entry): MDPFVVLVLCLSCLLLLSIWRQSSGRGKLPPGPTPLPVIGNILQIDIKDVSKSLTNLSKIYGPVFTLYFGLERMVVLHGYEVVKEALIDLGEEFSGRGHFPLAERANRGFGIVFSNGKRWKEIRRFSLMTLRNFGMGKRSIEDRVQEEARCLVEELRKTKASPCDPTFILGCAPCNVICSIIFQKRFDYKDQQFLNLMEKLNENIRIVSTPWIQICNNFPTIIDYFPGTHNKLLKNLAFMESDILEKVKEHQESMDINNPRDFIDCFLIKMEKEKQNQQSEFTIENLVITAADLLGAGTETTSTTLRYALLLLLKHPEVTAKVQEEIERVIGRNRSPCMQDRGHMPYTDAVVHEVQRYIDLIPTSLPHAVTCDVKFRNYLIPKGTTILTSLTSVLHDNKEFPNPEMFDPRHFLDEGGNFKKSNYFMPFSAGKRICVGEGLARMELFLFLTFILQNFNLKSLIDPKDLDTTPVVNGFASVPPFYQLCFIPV

[2] = biological target: T2, Corticotropin-releasing factor receptor 2/Corticotropin-releasing factor-binding protein (Homo sapiens, UniProt P24387+Q13324); assay: activators of CRF receptor 2 with binding protein – uHTS hits, confirmation (AID 602473); type: functional; conditions: read-out: EC50_Mean
T2 sequence (Q13324 whole entry): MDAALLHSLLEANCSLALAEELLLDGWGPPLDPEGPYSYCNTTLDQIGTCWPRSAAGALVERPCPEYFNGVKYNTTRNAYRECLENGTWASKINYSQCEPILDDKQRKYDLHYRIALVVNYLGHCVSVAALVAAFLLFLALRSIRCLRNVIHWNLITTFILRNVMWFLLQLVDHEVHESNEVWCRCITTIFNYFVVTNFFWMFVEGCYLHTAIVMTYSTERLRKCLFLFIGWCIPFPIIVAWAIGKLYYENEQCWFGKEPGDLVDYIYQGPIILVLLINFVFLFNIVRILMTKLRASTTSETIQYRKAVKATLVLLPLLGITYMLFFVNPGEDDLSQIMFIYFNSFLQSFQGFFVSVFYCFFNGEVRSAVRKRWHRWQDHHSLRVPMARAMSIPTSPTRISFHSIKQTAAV
T2 sequence (P24387 whole entry): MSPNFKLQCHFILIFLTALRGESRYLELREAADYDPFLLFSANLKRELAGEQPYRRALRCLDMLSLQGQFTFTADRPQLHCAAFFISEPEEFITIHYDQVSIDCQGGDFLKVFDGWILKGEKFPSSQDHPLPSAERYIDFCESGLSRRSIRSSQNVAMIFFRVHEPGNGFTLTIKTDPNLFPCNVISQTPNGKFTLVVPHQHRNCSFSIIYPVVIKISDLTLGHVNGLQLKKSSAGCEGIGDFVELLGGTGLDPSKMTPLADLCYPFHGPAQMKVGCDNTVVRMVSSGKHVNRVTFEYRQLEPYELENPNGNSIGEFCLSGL

Cytochrome P450 2C9 = Cytochrome P450 2C9 (Homo sapiens, UniProt P11712)
Sequence of Cytochrome P450 2C9 (P11712 whole entry, the tested form may be a part): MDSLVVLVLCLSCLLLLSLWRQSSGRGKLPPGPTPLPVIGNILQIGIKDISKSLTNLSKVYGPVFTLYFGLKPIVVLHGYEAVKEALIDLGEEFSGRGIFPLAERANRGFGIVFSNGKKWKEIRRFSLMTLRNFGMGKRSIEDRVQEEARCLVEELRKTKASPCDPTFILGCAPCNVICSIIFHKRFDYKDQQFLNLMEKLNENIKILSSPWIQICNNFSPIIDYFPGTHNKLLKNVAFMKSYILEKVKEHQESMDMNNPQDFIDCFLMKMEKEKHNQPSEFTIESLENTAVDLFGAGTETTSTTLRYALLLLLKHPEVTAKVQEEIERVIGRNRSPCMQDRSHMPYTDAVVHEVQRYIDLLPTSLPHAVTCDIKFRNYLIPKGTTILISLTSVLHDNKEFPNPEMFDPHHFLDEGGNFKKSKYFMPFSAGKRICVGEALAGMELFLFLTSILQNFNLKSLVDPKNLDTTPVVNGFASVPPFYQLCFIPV

[3] = biological target: T3, RNA-binding protein pos-1 (Caenorhabditis elegans, UniProt G5EF15); assay: inhibitors of POS-1/mex-3 RNA binding, dose response, biochemical, fluorescence polarization (AID 1964);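 also: purified POS-1 fused to maltose binding protein made in E. coli; potency of compounds blocking POS-1 binding to fluorescent RNA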
T3 sequence (G5EF15 whole entry): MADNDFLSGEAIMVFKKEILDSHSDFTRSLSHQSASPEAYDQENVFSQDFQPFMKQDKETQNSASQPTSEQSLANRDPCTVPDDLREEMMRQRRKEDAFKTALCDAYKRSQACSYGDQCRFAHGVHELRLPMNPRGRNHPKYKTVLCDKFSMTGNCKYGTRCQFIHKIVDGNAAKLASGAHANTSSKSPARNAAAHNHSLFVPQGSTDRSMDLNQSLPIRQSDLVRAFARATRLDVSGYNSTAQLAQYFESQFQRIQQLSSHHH

[4] = biological target: T4, Zinc finger protein mex-5 (Caenorhabditis elegans, UniProt Q9XUB2); assay: MEX-5/TCR-2 RNA interaction inhibitors, dose response, biochemical, C. elegans, fluorescence polarization (AID 1960)
T4 sequence (Q9XUB2 whole entry): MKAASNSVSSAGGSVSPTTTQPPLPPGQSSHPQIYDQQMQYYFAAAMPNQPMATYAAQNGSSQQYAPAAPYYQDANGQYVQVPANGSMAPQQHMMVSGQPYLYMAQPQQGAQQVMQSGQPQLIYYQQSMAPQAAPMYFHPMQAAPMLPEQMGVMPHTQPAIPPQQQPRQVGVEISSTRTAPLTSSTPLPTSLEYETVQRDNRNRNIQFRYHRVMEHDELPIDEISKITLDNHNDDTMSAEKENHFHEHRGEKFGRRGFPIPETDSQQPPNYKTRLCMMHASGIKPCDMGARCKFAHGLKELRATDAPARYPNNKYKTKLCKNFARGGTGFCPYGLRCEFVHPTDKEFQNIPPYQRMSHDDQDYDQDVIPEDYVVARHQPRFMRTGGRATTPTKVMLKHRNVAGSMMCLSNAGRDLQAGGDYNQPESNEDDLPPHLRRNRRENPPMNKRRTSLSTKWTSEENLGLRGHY

INS1 = assay: beta cell apoptosis inhibitors, cytokine rescue, dose response, luminescence, retest (AID 449756); type: functional, cell-based; conditions: Rattus norvegicus;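 also: cell death triggered by IL-1 beta plus TNF-alpha plus IFN-gamma mixture; protective hits raise ATP signal compared with cytokine alone wells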
[5] = test system: Streptococcus sp. 'group A'; assay: growth inhibition of control SK(-) GAS strain, dose response, counter-screen for streptokinase expression inhibitor project, luminescence, kanamycin, BacTiterGlo, confirmation (AID 1900); type: functional, organism-based
Streptococcus = assay: Group A Streptococcus viability loss, dose response, counter-screen for streptokinase expression inhibitor project, luminescence, BacTiterGlo (AID 1915); type: functional, organism-based;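 also: potency for reduction of bacterial viability or growth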
Streptokinase A = biological target: T5, Streptokinase A (Streptococcus pyogenes serotype M1, UniProt P10520); assay: S. pyogenes streptokinase expression inhibitors, potency, dose response, plasminogen activation absorbance, OD405 (AID 1914); type: functional, Streptococcus pyogenes M1 GAS;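 also: secreted streptokinase activity via plasminogen activation per viability signal from cell pellet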
T5 sequence (P10520 whole entry): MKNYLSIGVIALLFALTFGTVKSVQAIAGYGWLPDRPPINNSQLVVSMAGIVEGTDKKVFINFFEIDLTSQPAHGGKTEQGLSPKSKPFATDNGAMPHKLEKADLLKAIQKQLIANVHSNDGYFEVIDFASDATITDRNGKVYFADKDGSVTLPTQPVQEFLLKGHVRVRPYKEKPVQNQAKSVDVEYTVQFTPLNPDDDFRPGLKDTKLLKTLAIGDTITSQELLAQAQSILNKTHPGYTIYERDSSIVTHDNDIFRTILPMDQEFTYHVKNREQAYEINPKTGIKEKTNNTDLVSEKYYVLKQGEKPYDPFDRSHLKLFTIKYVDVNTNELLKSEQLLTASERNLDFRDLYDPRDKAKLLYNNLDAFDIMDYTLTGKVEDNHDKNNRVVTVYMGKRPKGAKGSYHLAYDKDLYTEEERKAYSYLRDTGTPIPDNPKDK

[6] = Luminescence Cell-Based Dose Retest to Confirm Inhibitors of Cancer Stem Cells. [Related pubchem assays (depositor defined):AID2717, AID2721]; type: functional; conditions: Homo sapiens

CCCOc1ccc(NC(N)=O)cc1OCCC
EC50 [1]: > 195 µM (not active)

O=C(O)CSc1nc(-c2ccccc2)nc2c1oc1ccccc12
EC50 [1]: > 195 µM (not active)

CCN1CCN(c2nc(C)c3c(n2)CCCC3=O)CC1
AC50 (Cytochrome P450 2C19): inconclusive

CC1(c2ccc(Cl)cc2)NC(=O)N(CC(=O)N2CCc3ccccc32)C1=O (centres undefined)
EC50 [2]: 14.1 µM (active)

CCOC(=O)N1CCN(C(S)=Nc2ccc(C)cc2C)CC1
EC50 [1]: > 195 µM (not active)

O=C(/C=C\c1ccc2c(c1)OCO2)c1ccc(F)cc1
AC50 (Cytochrome P450 2C9): 1.58 µM (inconclusive)

Cc1cc(/C=C2\SC(=O)N(C)C2=O)c(C)n1-c1cccc(C(=O)O)c1
EC50 [3]: > 300 µM (not active)
EC50 [4]: > 300 µM (not active)

CC(C)(NC(=O)c1cc(Cl)c2ccccc2c1O)C(=O)O
EC50 [1]: 14.1 µM (active)

COc1ccccc1NCC(=O)N/N=C/c1c(O)ccc2ccccc12
AC50 (INS1): 4.94 µM (active)
EC50 [3]: > 300 µM (not active)
EC50 [4]: > 150 µM (not active)

CC(=N/O)/C(C)=N\NC(=O)c1ccccn1
EC50 [1]: > 195 µM (not active)

O=C(CC1Nc2ccccc2NC1=O)c1ccccc1 (centres undefined)
EC50 [3]: 30.6 µM (active)
EC50 [4]: 103 µM (active)

CN1C(=O)/C(=C/c2ccc3c(c2)OCO3)N=C1c1ccccc1
EC50 [3]: > 300 µM (not active)
EC50 [4]: 75.1 µM (inconclusive)

CCCSc1nsc(NC(=O)Nc2ccc(F)cc2F)n1
EC50 [5]: 17.5 µM (active)
AC50 (INS1): 6.57 µM (active)
EC50 (Streptococcus): 34.2 µM (active)
EC50 (Streptokinase A): 54.8 µM (inconclusive)
AC50 [6]: 2.95 µM (active)

CCN(CC)C(=O)CSc1nnc(-c2cc3ccccc3cc2O)n1CC
AC50 (Cytochrome P450 2C19; read-out: AC50): 15.8 µM (inconclusive)

COC(=O)c1cccc(C(=O)Nc2ccc(C)cc2)n1
AC50 (Cytochrome P450 2C9): 6.31 µM (inconclusive)

O=C(CSc1nnc(CNc2ccccc2)o1)N1CCCc2ccccc21
AC50 (Cytochrome P450 2C9): 15.8 µM (inconclusive)

O=C(NC1CCCCC1)c1ccc(COCC(F)(F)F)o1
AC50 (Cytochrome P450 2C9): 15.8 µM (inconclusive)

CCOC(=O)c1ccc(NC(=O)Oc2ccccc2)cc1
EC50 [1]: > 195 µM (not active)

CC(=O)OCC(=O)[C@@]1(O)[C@H](C)C[C@@H]2[C@H]3CCC4=CC(=O)C=C[C@]4(C)[C@]3(F)[C@@H](O)C[C@@]21C
AC50 (Cytochrome P450 2C9): 6.31 µM (inconclusive)

Cc1cccc(N2C(=O)CS/C2=N\NC(=O)c2ccc(Br)cc2)c1C
EC50 [1]: > 195 µM (not active)

O=C(O)COc1ccc(/C=N/NC(=O)c2ccccc2Br)cc1
EC50 [1]: > 195 µM (not active)

COC(=O)C1=CN(c2ccc(F)c(F)c2)C=C(C(=O)OC)C1c1ccc([N+](=O)[O-])cc1
EC50 [1]: > 195 µM (not active)

Cc1cc([N+](=O)[O-])nn1CC(=O)NNC(=S)Nc1ccc([N+](=O)[O-])cc1
EC50 [3]: 28.3 µM (active)
EC50 [4]: 5.47 µM (active)

CC(=O)Nc1ccccc1Sc1ccc2c3c(cccc13)C(=O)N(c1ccc(C)cc1)C2=O
EC50 [2]: > 53 µM (inactive)

CCOC(=O)C1=NOC2C3CC(C12)C1C(=O)N(CCc2ccc(OC)c(OC)c2)C(=O)C31 (centres undefined)
EC50 [1]: > 195 µM (not active)

COc1cc(/N=C/c2c(O)oc3ccccc3c2=O)c(OC)cc1Cl
EC50 [3]: > 300 µM (inconclusive)
EC50 [2]: > 53 µM (inactive)
EC50 [4]: > 300 µM (inconclusive)

CC(NC(=O)CSc1nc(=O)cc(N)n1CCc1ccccc1)c1ccccc1 (centres undefined)
AC50 (Cytochrome P450 2C19; read-out: AC50): 14.1 µM (inconclusive)

Cc1cc(C)nc(NC(=O)COc2cc(Cl)cc(Cl)c2)n1
EC50 [1]: 71.9 µM (active)

O=C1C2CC=C(Cl)CC2C(=O)N1CCc1ccccc1 (centres undefined)
EC50 [3]: 29.4 µM (active)
EC50 [4]: 20.6 µM (active)

NCc1ccccc1.O=C(O)NCc1ccccc1
AC50 (Cytochrome P450 2C9): 3.98 µM (inconclusive)
AC50 (Cytochrome P450 2C19; read-out: AC50): 2.51 µM (inconclusive)

Cc1ccc(NC(=O)CSc2nccc(=O)[nH]2)c(S(=O)(=O)N2CCOCC2)c1
EC50 [3]: > 300 µM (not active)
EC50 [4]: > 300 µM (not active)

CCC1CC2CC(NC(C)=O)C1C2 (centres undefined)
AC50 (Cytochrome P450 2C9): 7.08 µM (inconclusive)
AC50 (Cytochrome P450 2C19; read-out: AC50): 20 µM (inconclusive)

Cc1cc(S(=O)(=O)N2CCN=C2c2ccccc2)c(C)cc1Cl
EC50 [1]: > 195 µM (not active)

COc1cccc(-c2nnc3sc(-c4ccc(C)cc4)nn23)c1
AC50 (Cytochrome P450 2C19; read-out: AC50): 6.31 µM (inconclusive)

O=C1CCC(c2ccccc2)(c2ccccc2)CC1
AC50 (Cytochrome P450 2C9): 6.31 µM (inconclusive)

CCCCNC(=O)CCC(=O)Nc1ccc2nc(N3CCOCC3)cc(C)c2c1
AC50 (Cytochrome P450 2C9): 17.8 µM (inconclusive)

CCOc1ccc(-n2c(N)c(C(=O)NCc3cccnc3)sc2=S)cc1
AC50 (Cytochrome P450 2C9): 3.55 µM (inconclusive)
AC50 (Cytochrome P450 2C19; read-out: AC50): 8.91 µM (inconclusive)
